From patent US20020002269A1, “ARTEMIN, A NEUROTROPHIC FACTOR” (priority 1998, published 2002)

Legend:
[1] = test system: dopaminergic neurons from the rat embryonic ventral midbrain; test: Survival of TH+ dopaminergic ventral midbrain neurons; type: cell-based; conditions: E14 rat, 50 ng/ml, 3 days in culture, FIG. 7F
Experimental: Embryonic day 14 ventral mesencephalon cultures were prepared by removing the entire mesencephalon into cold Leibovitz's L15+6 mg/ml glucose and dissecting the tissue while keeping it on ice. Following dissection, the tissue was digested in a mixture of dispase (1 mg/ml, Sigma) and collagenase (1 mg/ml, Worthington Biochemical) for 25 min. Tissue was then washed twice with modified N2 media and triturated 35 times. Cell density and viability was assessed using a hemocytometer to count trypan blue excluding cells. Cells were plated at 20,000 cells/well on 8-well chamber slides (coated with 125 ng/ml poly-D-lysine and 25 ng/ml laminin) in serum-free medium consisting of DME/Hams F12 (1:1), 1 mg/ml BSA, 5 μM insulin, 10 nM progesterone, 100 μM putrescine, 30 nM selenium, 10 ng/ml rat transferrin, 100 U/ml penicillin, 100 U/ml streptomycin. Factors were added within 15 min of plating. After 3 days in culture, the cells were fixed, stained for tyrosine hydroxylase, and the number of tyrosine hydroxylase staining (TH+) neurons were counted. The results from two independent experiments are shown in FIG. 7F as the percentage of surviving TH+ neurons over control.

[2] = test system: SH-SY5Y neuroblastoma cell line; test: Differentiation of SH-SY5Y neuroblastoma cells; type: cell-based; conditions: 50 ng/ml, three days after factor addition, FIG. 8C
Experimental: In one experiment, cells from the SH-SY5Y neuroblastoma cell line were plated at 2×10^5 cells/ml/well in 12-well tissue culture plates. After one day in culture cells were either left untreated (Cn) or stimulated with 50 ng/ml artemin (ART) or 10 μM retinoic acid (RA), a known inducer of differentiation of SH-SYSY cells. Three days after factor addition, differentiation was assessed and cells were photographed.

artemin: recombinant mature human artemin (FIG. 3A, SEQ ID NO:3) with 8-histidine tag, produced in E. coli; GDNF family neurotrophic factor
survival of TH+ dopaminergic midbrain neurons [1]: supported the survival of dopaminergic midbrain neurons
differentiation (neurite outgrowth, neuronal morphology) of SH-SY5Y cells [2]: induced strong differentiation responses
